MIC data for 6 compounds are collected here from ChEMBL document CHEMBL3232938, “Design, synthesis, and biological evaluation of dihydroartemisinin-fluoroquinolone conjugates as a novel type of potential antitubercular agents” (2014).

As a reminder, the MIC is the least concentration at which growth counts as inhibited.

In brackets after ≈: the same amount, converted by molar mass.

Assay type in all cases: functional
Assay [1] relates to Mycobacterium tuberculosis. The assay can be described thus: Antibacterial activity against multidrug-resistant 1 ug/ml Mycobacterium tuberculosis clinical isolate 1256 assessed as growth inhibition after 7 days by microtiter plate assay. Conditions: isolate 1256, 168 h.
Assay [2] has as its system Mycobacterium tuberculosis. In words: Antibacterial activity against multidrug-resistant 1 ug/ml Mycobacterium tuberculosis clinical isolate 1259 assessed as growth inhibition after 7 days by microtiter plate assay. Conditions: isolate 1259, 168 h.
For assay [3], the system named is Mycobacterium tuberculosis. In words: Antibacterial activity against multidrug-resistant 1 ug/ml Mycobacterium tuberculosis clinical isolate 1288 assessed as growth inhibition after 7 days by microtiter plate assay. Conditions: isolate 1288, 168 h.
The subject of assay [4] is Mycobacterium tuberculosis. The assay can be described thus: Antibacterial activity against multidrug-resistant 1 ug/ml Mycobacterium tuberculosis clinical isolate 930 assessed as growth inhibition after 7 days by microtiter plate assay. Conditions: isolate 930, 168 h.
Assay [5] relates to Mycobacterium tuberculosis. The assay can be described thus: Antibacterial activity against multidrug-resistant 1 ug/ml Mycobacterium tuberculosis clinical isolate 1237 assessed as growth inhibition after 7 days by microtiter plate assay. Conditions: isolate 1237, 168 h.

In the case of `C[C@H]1[C@@H](OCCCNC2CCN(c3c(F)cc4c(=O)c(C(=O)O)cn(C5CC5)c4c3Cl)C2)O[C@@H]2O[C@@]3(C)CC[C@H]4[C@H](C)CC[C@@H]1[C@@]24OO3` (stereo not given in full), the MIC in assay [1] was 16 µg/mL (≈ 23.2 µM); in assay [2], 2 µg/mL (≈ 2.9 µM); in assay [3], 0.125 µg/mL (≈ 0.181 µM); in assay [4], 4 µg/mL (≈ 5.8 µM); in assay [5] it was 2 µg/mL (≈ 2.9 µM).

Turning to `C[C@H]1[C@@H](OCCNC2CCN(c3c(F)cc4c(=O)c(C(=O)O)cn(C5CC5)c4c3Cl)C2)O[C@@H]2O[C@@]3(C)CC[C@H]4[C@H](C)CC[C@@H]1[C@@]24OO3` (stereo not given in full), the MIC is 16 µg/mL (≈ 23.7 µM) in assay [1]; 2 µg/mL (≈ 2.96 µM) in assay [2]; 0.125 µg/mL (≈ 0.185 µM) in assay [3]; 4 µg/mL (≈ 5.92 µM) in assay [4]; 2 µg/mL (≈ 2.96 µM) in assay [5].

Regarding `C[C@H]1[C@@H](O)O[C@@H]2O[C@@]3(C)CC[C@H]4[C@H](C)CC[C@@H]1[C@@]24OO3` [ARTENIMOL], the MIC in assay [1], in assay [2], in assay [3], in assay [4] and in assay [5] was above 16 µg/mL in each case.

Take `NC1CCN(c2c(F)cc3c(=O)c(C(=O)O)cn(C4CC4)c3c2Cl)C1` (stereo not given) [CLINAFLOXACIN]: the MIC stood at 0.5 µg/mL (≈ 1.37 µM) in assay [1]; 0.125 µg/mL (≈ 0.342 µM) in assay [2]; 1 µg/mL (≈ 2.73 µM) in assay [3]; 4 µg/mL (≈ 10.9 µM) in assay [4]; 1 µg/mL (≈ 2.73 µM) in assay [5].

`CCn1cc(C(=O)O)c(=O)c2cc(F)c(N3CCNCC3)cc21` [NORFLOXACIN]: the MIC in assay [1] was 16 µg/mL (≈ 50.1 µM); in assay [2], 2 µg/mL (≈ 6.26 µM); in assay [3] it was above 16 µg/mL; in assay [4], above 16 µg/mL; in assay [5] it was above 16 µg/mL.

For the compound `O=C(O)c1cn(-c2ccc(F)cc2)c2cc(N3CCNCC3)c(F)cc2c1=O` [SARAFLOXACIN], the MIC in assay [1] was 16 µg/mL (≈ 41.5 µM); in assay [2] it was 4 µg/mL (≈ 10.4 µM); in assay [3] it was above 16 µg/mL; in assay [4], above 16 µg/mL; in assay [5], above 16 µg/mL.
